Measured values published in ChEMBL document CHEMBL1201862, “PubChem BioAssay data set” (2004).
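Where inhibition never reached the appropriate level, the endpoint shown equals the highest concentration tested. Otherwise, values were interpolated linearly from a five-concentration, 48-hour dose response in 96-well plates. Abbreviation: GI50, concentration required for 50% inhibition of growth.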 Calls of active or inactive are those of the source. Rule as the data show it: active = GI50 up to about 1.1 µM and inactive = higher.

Key:
Experiment in all cases: growth of human tumour cells (NCI), 48 h
HCT-116 = tested on: HCT-116
M14 = tested on: M14
NCI-H23 = tested on: NCI-H23
OVCAR-3 = tested on: OVCAR-3
OVCAR-8 = tested on: OVCAR-8
SF-268 = tested on: SF-268
SK-MEL-28 = tested on: SK-MEL-28
SK-OV-3 = tested on: SK-OV-3
SN12C = tested on: SN12C
TK-10 = tested on: TK-10
U-251 = tested on: U-251
UACC-62 = tested on: UACC-62
CCRF-CEM = tested on: CCRF-CEM
HL-60 = tested on: HL-60
K562 = tested on: K562
Malme-3M = tested on: Malme-3M
RXF 393 = tested on: RXF 393
SR = tested on: SR
NCI/ADR-RES = tested on: NCI/ADR-RES

Row | SMILES | GI50 (HCT-116) | GI50 (M14) | GI50 (NCI-H23) | GI50 (OVCAR-3) | GI50 (OVCAR-8) | GI50 (SF-268) | GI50 (SK-MEL-28) | GI50 (SK-OV-3) | GI50 (SN12C) | GI50 (TK-10) | GI50 (U-251) | GI50 (UACC-62) | GI50 (CCRF-CEM) | GI50 (HL-60) | GI50 (K562) | GI50 (Malme-3M) | GI50 (RXF 393) | GI50 (SR) | GI50 (NCI/ADR-RES)
1 | CN(C)/C(=N\C#N)NCc1ccccc1 | > 100 µM (inactive) | > 100 µM (inactive) | > 100 µM (inactive) | > 100 µM (inactive) | > 100 µM (inactive) | > 100 µM (inactive) | > 100 µM (inactive) | > 100 µM (inactive) | > 100 µM (inactive) | > 100 µM (inactive) | > 100 µM (inactive) | > 100 µM (inactive) | – | – | – | – | – | – | –
2 | COc1ccc([Se]c2ccc(OC)cc2)cc1 | 55.2 µM (inactive) | > 100 µM (inactive) | 56.2 µM (inactive) | 76.6 µM (inactive) | > 100 µM (inactive) | 56.9 µM (inactive) | > 100 µM (inactive) | > 100 µM (inactive) | > 100 µM (inactive) | > 100 µM (inactive) | > 100 µM (inactive) | > 100 µM (inactive) | 58.9 µM (inactive) | 41.5 µM (inactive) | 60.1 µM (inactive) | > 100 µM (inactive) | 19.5 µM (inactive) | – | –
3 | O=C(O)c1ccccc1NC(=O)C1CCCCC1 | > 100 µM (inactive) | > 100 µM (inactive) | – | > 100 µM (inactive) | > 100 µM (inactive) | > 100 µM (inactive) | > 100 µM (inactive) | > 100 µM (inactive) | > 100 µM (inactive) | > 100 µM (inactive) | > 100 µM (inactive) | > 100 µM (inactive) | > 100 µM (inactive) | > 100 µM (inactive) | > 100 µM (inactive) | > 100 µM (inactive) | – | – | –
4 | COc1ccc2cc(C(=O)c3ccccc3C(=O)O)ccc2c1 | > 100 µM (inactive) | > 100 µM (inactive) | > 100 µM (inactive) | > 100 µM (inactive) | > 100 µM (inactive) | > 100 µM (inactive) | > 100 µM (inactive) | > 100 µM (inactive) | > 100 µM (inactive) | > 100 µM (inactive) | > 100 µM (inactive) | > 100 µM (inactive) | > 100 µM (inactive) | > 100 µM (inactive) | > 100 µM (inactive) | > 100 µM (inactive) | > 100 µM (inactive) | > 100 µM (inactive) | –
5 | Cn1ccnc1CCc1ccc(Cl)c(Cl)c1 | > 100 µM (inactive) | > 100 µM (inactive) | > 100 µM (inactive) | 74.1 µM (inactive) | > 100 µM (inactive) | > 100 µM (inactive) | > 100 µM (inactive) | > 100 µM (inactive) | > 100 µM (inactive) | > 100 µM (inactive) | > 100 µM (inactive) | > 100 µM (inactive) | > 100 µM (inactive) | 69 µM (inactive) | 54.7 µM (inactive) | > 100 µM (inactive) | > 100 µM (inactive) | > 100 µM (inactive) | –
6 | CCN(CC)CCSc1c2ccccc2nc2cc(NCC(=O)Nc3ccccc3-c3ccccc3NC(=O)CNc3ccc4c(SCCN(CC)CC)c5ccccc5nc4c3)ccc12 | > 78.3 µM (inactive) | > 100 µM (inactive) | > 100 µM (inactive) | > 100 µM (inactive) | > 100 µM (inactive) | > 100 µM (inactive) | > 100 µM (inactive) | > 100 µM (inactive) | > 100 µM (inactive) | > 100 µM (inactive) | > 100 µM (inactive) | > 100 µM (inactive) | 24.9 µM (inactive) | 20.3 µM (inactive) | 24 µM (inactive) | > 77.3 µM (inactive) | > 100 µM (inactive) | 34.1 µM (inactive) | –
7 | C=C1N(C=O)C(C)(C)N(O)C1(C)C | > 100 µM (inactive) | > 100 µM (inactive) | > 100 µM (inactive) | > 100 µM (inactive) | > 100 µM (inactive) | > 100 µM (inactive) | > 100 µM (inactive) | > 100 µM (inactive) | > 100 µM (inactive) | > 100 µM (inactive) | > 100 µM (inactive) | > 100 µM (inactive) | – | – | – | > 100 µM (inactive) | > 100 µM (inactive) | – | > 100 µM (inactive)
8 | N#CCCN(CCC#N)c1ccc(C(=O)NN)cc1 | > 100 µM (inactive) | > 100 µM (inactive) | > 100 µM (inactive) | > 100 µM (inactive) | > 100 µM (inactive) | > 100 µM (inactive) | > 100 µM (inactive) | > 100 µM (inactive) | > 100 µM (inactive) | > 100 µM (inactive) | > 100 µM (inactive) | > 100 µM (inactive) | > 100 µM (inactive) | > 100 µM (inactive) | > 100 µM (inactive) | > 100 µM (inactive) | > 100 µM (inactive) | – | –
9 | CN[C@@H](C)[C@H](NC)c1ccccc1 | > 100 µM (inactive) | > 100 µM (inactive) | > 100 µM (inactive) | > 100 µM (inactive) | > 100 µM (inactive) | – | > 100 µM (inactive) | > 100 µM (inactive) | > 100 µM (inactive) | > 100 µM (inactive) | > 100 µM (inactive) | > 100 µM (inactive) | > 100 µM (inactive) | > 100 µM (inactive) | > 100 µM (inactive) | > 100 µM (inactive) | > 100 µM (inactive) | – | –
10 | COC(=O)C(C(=O)C(=O)Nc1c(C)cccc1C)c1cnc2ccccc2n1 (stereo not drawn) | > 100 µM (inactive) | > 100 µM (inactive) | > 100 µM (inactive) | – | > 100 µM (inactive) | > 100 µM (inactive) | > 100 µM (inactive) | > 100 µM (inactive) | > 100 µM (inactive) | > 100 µM (inactive) | > 100 µM (inactive) | > 100 µM (inactive) | > 100 µM (inactive) | > 100 µM (inactive) | > 100 µM (inactive) | > 100 µM (inactive) | > 100 µM (inactive) | > 100 µM (inactive) | –
11 | CCCCCCCCCCCC(=O)OC(COC(N)=O)COc1ccc(Cl)cc1 (stereo not drawn) | 15.9 µM (inactive) | 20.1 µM (inactive) | 20.7 µM (inactive) | 16.3 µM (inactive) | 17.7 µM (inactive) | 20.6 µM (inactive) | 20.3 µM (inactive) | > 100 µM (inactive) | 26.7 µM (inactive) | 30.6 µM (inactive) | 25.8 µM (inactive) | 19.5 µM (inactive) | 18.2 µM (inactive) | 15.3 µM (inactive) | 19.2 µM (inactive) | 21.9 µM (inactive) | 21 µM (inactive) | – | –
12 | CCCCn1/c(=N/C(=S)N(C)C)ss/c1=N\C(=S)N(C)C | > 100 µM (inactive) | > 100 µM (inactive) | > 100 µM (inactive) | – | > 100 µM (inactive) | > 100 µM (inactive) | > 100 µM (inactive) | > 100 µM (inactive) | > 100 µM (inactive) | 6.19 µM (inactive) | > 100 µM (inactive) | > 100 µM (inactive) | > 100 µM (inactive) | > 100 µM (inactive) | > 100 µM (inactive) | > 100 µM (inactive) | > 100 µM (inactive) | > 100 µM (inactive) | –
13 | CN(C)c1ccc2c(=O)c3ccccc3oc2n1 | – | > 100 µM (inactive) | > 100 µM (inactive) | 91.6 µM (inactive) | > 100 µM (inactive) | > 100 µM (inactive) | > 100 µM (inactive) | > 100 µM (inactive) | > 100 µM (inactive) | > 100 µM (inactive) | – | > 100 µM (inactive) | > 100 µM (inactive) | > 100 µM (inactive) | > 100 µM (inactive) | > 100 µM (inactive) | > 100 µM (inactive) | – | –
14 | O=C(CCC1C(=O)NC(=S)NC1=O)c1ccc2ccccc2c1 | > 100 µM (inactive) | > 100 µM (inactive) | > 100 µM (inactive) | > 100 µM (inactive) | > 100 µM (inactive) | > 100 µM (inactive) | > 100 µM (inactive) | > 100 µM (inactive) | > 100 µM (inactive) | > 100 µM (inactive) | > 100 µM (inactive) | > 100 µM (inactive) | > 100 µM (inactive) | > 100 µM (inactive) | > 100 µM (inactive) | > 100 µM (inactive) | > 100 µM (inactive) | > 100 µM (inactive) | –
15 | CC(=O)NC1C(=O)CC(c2ccccc2)N(C)C1c1ccccc1 (stereo not drawn) | > 100 µM (inactive) | 61 µM (inactive) | > 100 µM (inactive) | > 100 µM (inactive) | > 100 µM (inactive) | > 100 µM (inactive) | > 100 µM (inactive) | 26.3 µM (inactive) | > 100 µM (inactive) | > 100 µM (inactive) | > 100 µM (inactive) | > 100 µM (inactive) | > 100 µM (inactive) | > 100 µM (inactive) | > 100 µM (inactive) | > 100 µM (inactive) | > 100 µM (inactive) | > 100 µM (inactive) | –
16 | CC12CCC3(C1)[C@H](CC2=O)C[C@@H](OC(=O)c1ccccc1)C1C(C)(CO)CCC[C@@]13C (stereo partly drawn) | 2.22 µM (inactive) | 3.61 µM (inactive) | 0.681 µM (active) | 0.24 µM (active) | 3.13 µM (inactive) | 5.11 µM (inactive) | 13.3 µM (inactive) | 17.1 µM (inactive) | 4.35 µM (inactive) | > 21.9 µM (inactive) | 2.38 µM (inactive) | 0.0288 µM (active) | 2.29 µM (inactive) | 0.327 µM (active) | 0.416 µM (active) | 9.42 µM (inactive) | 1.71 µM (inactive) | – | –
17 | COc1ccc(NC(=O)C(=O)Cc2nc3ccc([N+](=O)[O-])cc3nc2O)c(OC)c1 | > 100 µM (inactive) | > 100 µM (inactive) | > 100 µM (inactive) | > 100 µM (inactive) | – | – | > 100 µM (inactive) | > 100 µM (inactive) | – | > 100 µM (inactive) | – | > 100 µM (inactive) | > 100 µM (inactive) | > 100 µM (inactive) | > 100 µM (inactive) | > 100 µM (inactive) | > 100 µM (inactive) | – | –
